Measurements taken from ChEMBL document CHEMBL4831500, “Discovery of first-in-class imidazothiazole-based potent and selective ErbB4 (HER4) kinase inhibitors” (Eur J Med Chem, 2021).

What was measured:
Homo sapiens = species on record: Homo sapiens; experiment: Selectivity ratio of IC50 for inhibition of EFGR-T790M mutant (unknown origin) to IC50 for ErbB4 (unknown origin); details: time 40.0 min
[1] = target: Serine/threonine-protein kinase B-raf (Homo sapiens, UniProt P15056, V600E); experiment: Inhibition of BRAF V600E mutant (unknown origin) incubated for 40 mins in presence of Mg/ATP mix by [gamma p33]-ATP based scintillation counting method
Serine/threonine-protein kinase B-raf (Homo sapiens, UniProt P15056, V600E), sequence (P15056 2-766 V600E limits assumed): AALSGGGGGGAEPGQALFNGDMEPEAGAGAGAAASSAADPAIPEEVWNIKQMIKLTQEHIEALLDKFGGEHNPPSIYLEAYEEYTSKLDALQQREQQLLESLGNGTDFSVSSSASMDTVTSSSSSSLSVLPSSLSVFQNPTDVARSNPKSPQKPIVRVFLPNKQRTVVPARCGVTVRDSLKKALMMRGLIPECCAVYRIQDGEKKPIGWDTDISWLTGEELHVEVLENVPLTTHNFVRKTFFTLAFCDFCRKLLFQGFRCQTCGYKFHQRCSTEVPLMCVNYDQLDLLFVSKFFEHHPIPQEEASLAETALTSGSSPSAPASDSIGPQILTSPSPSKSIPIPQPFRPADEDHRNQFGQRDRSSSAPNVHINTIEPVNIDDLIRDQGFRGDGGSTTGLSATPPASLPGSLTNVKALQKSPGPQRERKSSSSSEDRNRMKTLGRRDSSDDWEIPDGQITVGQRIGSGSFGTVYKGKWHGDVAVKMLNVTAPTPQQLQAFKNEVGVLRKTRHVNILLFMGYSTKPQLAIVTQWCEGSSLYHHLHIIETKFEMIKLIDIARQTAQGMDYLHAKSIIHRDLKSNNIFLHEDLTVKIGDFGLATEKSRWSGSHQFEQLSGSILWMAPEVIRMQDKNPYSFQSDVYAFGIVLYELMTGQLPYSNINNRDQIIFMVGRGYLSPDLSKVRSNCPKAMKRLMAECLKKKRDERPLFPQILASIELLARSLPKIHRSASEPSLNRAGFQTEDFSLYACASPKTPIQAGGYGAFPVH

[2] = target: Voltage-gated inwardly rectifying potassium channel KCNH2 (Homo sapiens, UniProt Q12809); experiment: Inhibition of human ERG incubated for 3 hrs by competitive fluorescence tracer binding based assay
Voltage-gated inwardly rectifying potassium channel KCNH2, sequence (Q12809 whole entry): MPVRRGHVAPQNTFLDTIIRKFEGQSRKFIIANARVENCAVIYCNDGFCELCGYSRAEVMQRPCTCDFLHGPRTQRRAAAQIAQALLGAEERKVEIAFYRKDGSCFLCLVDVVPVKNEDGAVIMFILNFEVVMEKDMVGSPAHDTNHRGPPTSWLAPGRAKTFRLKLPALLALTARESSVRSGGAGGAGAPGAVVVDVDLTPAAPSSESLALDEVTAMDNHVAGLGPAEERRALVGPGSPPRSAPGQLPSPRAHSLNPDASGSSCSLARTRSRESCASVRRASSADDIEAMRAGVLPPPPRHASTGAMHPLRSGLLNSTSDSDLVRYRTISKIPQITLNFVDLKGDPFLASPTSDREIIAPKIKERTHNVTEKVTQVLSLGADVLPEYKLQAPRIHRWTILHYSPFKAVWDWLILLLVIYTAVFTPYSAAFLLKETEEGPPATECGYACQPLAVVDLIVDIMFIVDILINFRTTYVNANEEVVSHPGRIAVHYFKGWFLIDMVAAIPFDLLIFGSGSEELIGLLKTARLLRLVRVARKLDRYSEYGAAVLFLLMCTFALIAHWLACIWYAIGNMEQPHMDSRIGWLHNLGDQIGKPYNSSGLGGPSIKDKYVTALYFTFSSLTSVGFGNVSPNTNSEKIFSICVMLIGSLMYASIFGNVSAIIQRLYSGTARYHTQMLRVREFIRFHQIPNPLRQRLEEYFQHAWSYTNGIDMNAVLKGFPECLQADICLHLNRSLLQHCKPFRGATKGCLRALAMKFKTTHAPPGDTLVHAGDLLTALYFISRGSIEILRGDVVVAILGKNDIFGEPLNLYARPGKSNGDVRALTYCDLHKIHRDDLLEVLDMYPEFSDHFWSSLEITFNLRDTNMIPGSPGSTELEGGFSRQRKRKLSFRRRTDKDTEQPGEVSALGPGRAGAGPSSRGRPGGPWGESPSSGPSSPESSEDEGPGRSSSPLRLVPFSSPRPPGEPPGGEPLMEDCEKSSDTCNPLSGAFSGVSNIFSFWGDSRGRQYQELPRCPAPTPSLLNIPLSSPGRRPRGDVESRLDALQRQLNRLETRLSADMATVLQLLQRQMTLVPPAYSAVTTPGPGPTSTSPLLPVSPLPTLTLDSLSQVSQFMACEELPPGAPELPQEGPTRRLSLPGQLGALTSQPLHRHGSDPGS

CYP3A4 = CYP3A4 (Homo sapiens, UniProt P08684); experiment: Potency index, ratio of test compound IC50 to ketoconazole IC50 for inhibition of CYP3A4 (unknown origin) using BOMCC as a substrate incubated for 20 mins by fluorescence based analysis; format: ADME; details: probe BOMCC
[3] = target: T1, Receptor tyrosine-protein kinase erbB-4 (Homo sapiens, UniProt Q15303); experiment: Inhibition of ErbB4 (unknown origin) at 10 uM incubated for 40 mins in presence of Mg/ATP mix by [gamma p33]-ATP based scintillation counting method relative to control
T1 sequence (Q15303 whole entry): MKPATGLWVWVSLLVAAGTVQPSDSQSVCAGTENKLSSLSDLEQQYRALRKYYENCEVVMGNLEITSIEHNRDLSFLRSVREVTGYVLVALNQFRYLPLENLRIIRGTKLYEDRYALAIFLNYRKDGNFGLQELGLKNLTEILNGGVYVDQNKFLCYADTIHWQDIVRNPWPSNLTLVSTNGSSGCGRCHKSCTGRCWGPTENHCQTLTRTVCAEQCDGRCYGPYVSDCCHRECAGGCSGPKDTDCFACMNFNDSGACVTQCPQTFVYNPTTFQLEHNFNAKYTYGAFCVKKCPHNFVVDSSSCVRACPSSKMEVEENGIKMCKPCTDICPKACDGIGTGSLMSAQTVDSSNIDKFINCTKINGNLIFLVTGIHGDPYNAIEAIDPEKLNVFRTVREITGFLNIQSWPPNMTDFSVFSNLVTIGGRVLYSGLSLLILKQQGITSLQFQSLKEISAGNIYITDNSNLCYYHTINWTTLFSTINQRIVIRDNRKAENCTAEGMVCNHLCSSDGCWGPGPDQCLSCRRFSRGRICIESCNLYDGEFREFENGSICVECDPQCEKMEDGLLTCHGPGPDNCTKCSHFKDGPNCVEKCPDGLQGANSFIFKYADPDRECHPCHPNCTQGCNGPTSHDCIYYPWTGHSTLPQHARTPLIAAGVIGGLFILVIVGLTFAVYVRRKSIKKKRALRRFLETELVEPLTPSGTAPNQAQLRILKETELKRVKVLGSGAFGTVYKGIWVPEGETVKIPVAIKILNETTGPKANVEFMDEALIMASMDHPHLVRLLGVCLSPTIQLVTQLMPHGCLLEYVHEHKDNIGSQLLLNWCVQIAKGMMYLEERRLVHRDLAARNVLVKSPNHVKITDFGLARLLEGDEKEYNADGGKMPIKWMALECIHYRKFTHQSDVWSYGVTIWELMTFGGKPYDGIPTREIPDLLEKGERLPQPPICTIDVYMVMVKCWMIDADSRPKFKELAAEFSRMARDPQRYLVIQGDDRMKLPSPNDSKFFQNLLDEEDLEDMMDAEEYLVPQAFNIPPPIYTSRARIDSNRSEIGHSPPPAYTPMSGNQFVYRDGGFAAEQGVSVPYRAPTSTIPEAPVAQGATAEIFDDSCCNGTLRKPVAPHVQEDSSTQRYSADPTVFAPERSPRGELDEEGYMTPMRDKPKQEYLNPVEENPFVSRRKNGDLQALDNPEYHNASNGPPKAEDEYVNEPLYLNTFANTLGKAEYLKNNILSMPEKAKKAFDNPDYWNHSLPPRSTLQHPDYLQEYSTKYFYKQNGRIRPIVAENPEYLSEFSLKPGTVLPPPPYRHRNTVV

[4] = target: Epidermal growth factor receptor (Homo sapiens, UniProt P00533, L858R/T790M); experiment: Inhibition of EGFR T790M/L858R mutant (unknown origin) incubated for 40 mins in presence of Mg/ATP mix by [gamma p33]-ATP based scintillation counting method
[5] = target: Receptor-type tyrosine-protein kinase FLT3 (Homo sapiens, UniProt P36888); experiment: Inhibition of FLT-3(unknown origin) incubated for 40 mins in presence of Mg/ATP mix by [gamma p33]-ATP based scintillation counting method
[6] = target: RAF proto-oncogene serine/threonine-protein kinase (Homo sapiens, UniProt P04049); experiment: Inhibition of RAF1 (unknown origin) incubated for 40 mins in presence of Mg/ATP mix by [gamma p33]-ATP based scintillation counting method
[7] = target: Epidermal growth factor receptor (Homo sapiens, UniProt P00533, T790M); experiment: Inhibition of EGFR- T790M mutant (unknown origin) incubated for 40 mins in presence of Mg/ATP mix by [gamma p33]-ATP based scintillation counting method
[8] = test system: Panel NCI-60 (60 carcinoma cell lines); experiment: Growth inhibition of human panel NCI-60 (60 carcinoma cells) assessed as growth percent at 10 uM measured after 48 hrs by SRB assay relative to control; format: functional; details: read-out: Activity
Cytochrome P450 2D6 = Cytochrome P450 2D6 (Homo sapiens, UniProt P10635); experiment: Inhibition of CYP2D6 (unknown origin) using EOMCC as a substrate incubated for 20 mins by fluorescence based analysis; format: ADME
Cytochrome P450 2D6, sequence (P10635 whole entry): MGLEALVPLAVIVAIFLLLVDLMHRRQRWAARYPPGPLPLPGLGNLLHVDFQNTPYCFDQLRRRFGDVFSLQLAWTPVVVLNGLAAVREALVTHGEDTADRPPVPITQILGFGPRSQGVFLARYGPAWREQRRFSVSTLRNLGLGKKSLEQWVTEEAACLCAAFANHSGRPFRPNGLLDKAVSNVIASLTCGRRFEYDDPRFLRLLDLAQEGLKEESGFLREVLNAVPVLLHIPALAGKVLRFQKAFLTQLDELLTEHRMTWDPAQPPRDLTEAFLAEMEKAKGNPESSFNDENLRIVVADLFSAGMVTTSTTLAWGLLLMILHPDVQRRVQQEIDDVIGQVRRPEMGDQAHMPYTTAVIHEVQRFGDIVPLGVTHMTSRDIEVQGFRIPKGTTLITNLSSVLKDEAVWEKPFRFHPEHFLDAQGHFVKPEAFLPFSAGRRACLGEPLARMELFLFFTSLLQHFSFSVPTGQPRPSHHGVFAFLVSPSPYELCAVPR

hERG (KCNH2) = hERG (KCNH2) (Homo sapiens, UniProt Q12809); experiment: Safety index, ratio of test compound IC50 to E-4031 IC50 for inhibition of human ERG incubated for 3 hrs by competitive fluorescence tracer binding based assay; details: read-out: Ratio IC50
hERG (KCNH2), sequence (Q12809 whole entry): as the sequence (Q12809 whole entry) above

[9] = target: Serine/threonine-protein kinase A-Raf (Homo sapiens, UniProt P10398); experiment: Inhibition of A-RAF (unknown origin) incubated for 40 mins in presence of Mg/ATP mix by [gamma p33]-ATP based scintillation counting method
[10] = target: Vascular endothelial growth factor receptor 2 (Homo sapiens, UniProt P35968); experiment: Inhibition of KDR (unknown origin) incubated for 40 mins in presence of Mg/ATP mix by [gamma p33]-ATP based scintillation counting method
[11] = target: T1, Receptor tyrosine-protein kinase erbB-4; experiment: Inhibition of ErbB4 (unknown origin) incubated for 40 mins in presence of Mg/ATP mix by [gamma p33]-ATP based scintillation counting method
Cytochrome P450 3A4 = Cytochrome P450 3A4 (Homo sapiens, UniProt P08684); experiment: Inhibition of CYP3A4 (unknown origin) using BOMCC as a substrate incubated for 20 mins by fluorescence based analysis; format: ADME
[12] = target: Epidermal growth factor receptor (Homo sapiens, UniProt P00533, L861Q); experiment: Inhibition of EGFR- L861Q mutant (unknown origin) incubated for 40 mins in presence of Mg/ATP mix by [gamma p33]-ATP based scintillation counting method
[13] = target: Serine/threonine-protein kinase B-raf (Homo sapiens, UniProt P15056); experiment: Inhibition of wild type B-RAF (unknown origin) incubated for 40 mins in presence of Mg/ATP mix by [gamma p33]-ATP based scintillation counting method
[14] = target: Dual specificity mitogen-activated protein kinase kinase 2 (Homo sapiens, UniProt P36507); experiment: Inhibition of MEK2 (unknown origin) incubated for 40 mins in presence of Mg/ATP mix by [gamma p33]-ATP based scintillation counting method

In the case of c1ccc(COc2cccc(-c3nc4sccn4c3-c3ccncn3)c2)cc1, the Selectivity Index (Homo sapiens) is reported as 21.5, the IC50 [1] is reported as 1.59 µM and the IC50 [2] is reported as 12.8 µM. It also gave a selectivity ratio at 20 min (CYP3A4) of 8790, an inhibition [3] of over 60% and an IC50 [4] of 8.56 µM. The IC50 [5] was 1.36 µM, the IC50 [6] was 2.03 µM and the IC50 [7] was 0.38 µM. The growth at 10 µM [8] was 78.4%, the IC50 (Cytochrome P450 2D6) was over 90 µM and the selectivity ratio at 3 h (hERG (KCNH2)) was 530. It also gave an IC50 [9] of 7.06 µM, an IC50 [10] of 0.71 µM and an IC50 [11] of 0.0177 µM. It also gave an IC50 (Cytochrome P450 3A4) of 20.9 µM, an IC50 [12] of 4.35 µM and an IC50 [13] of 1 µM. For the same compound, the IC50 [14] was 3.25 µM.
